In patent publication EP0769966B1, “BIOTIN COMPOUNDS FOR TARGETTING TUMORS AND SITES OF INFECTION” (priority 1994, dated 1995):

Experiments:
avidin = avidin (Gallus gallus, UniProt P02701); experiment: Competitive binding of F-18 labeled biotin analogs to avidin vs. unlabeled d-biotin
Description: The two biotin derivatives were evaluated for binding to avidin in the presence of varying concentrations of unlabeled d-biotin as described in Example 3.
A preliminary measure of the binding characteristics of the fluoro analogs of biotin were performed. The binding of these novel F-18 labeled biotin analogs to avidin was evaluated by measuring the binding of F-18 labeled biotin analogs to avidin in the presence of varying concentrations of unlabeled d-biotin. Serial dilutions of d-biotin were prepared in phopshate buffered saline pH 7.4 (PBS). A fixed quantity of the no-carrier added F-18 labeled biotin 1 or 2 (10- 100µCi) were mixed with each d-biotin dilution so that the range of concentrations of cold biotin were 3 orders of magnitude greater and less than the concentration of avidin ([…]). A 200 µl aliquot of the F-18 biotin/cold biotin solution was added to 200 µl of avidin in PBS. The solution was vortexed and allowed to incubate for 1 hour after which time a 5 µl aliquot of the solution was analysed by instant thin layer chromatography (Gelman ILTC-SG) using 0.1 M acetate buffer pH 6.0. In this chromatographic system the F-18 biotin analogs bound to avidin origin while the unbound F-18-biotin analogs move to the solvent front. Percent binding of F-18 biotin analog was calculated as [(counts at origin/total counts)* 100]. For each F-18-biotin analog potential impurities remaining at the origin were determined and the results of binding corrected accordingly.

in vivo = format: in vivo, male Sprague-Dawley rats; details: rat, in vivo, iv
Description: (§1) A clinical isolate of E. Coli was stored at -70°C in a freezing media containing 20% glycerol and 80% dextrose phosphate until use. Aliquots of bacteria were defrosted and colony counts performed on serial dilutions grown overnight on BBL Brucella agar plates. Based on the colony count, freshly thawed bacteria suspensions were washed and diluted with saline to a final concentration of […]. Aliquots (0.1 ml) of bacterial suspensions (8 x 10^9 organisms/ml) were injected into the right thigh muscle of 48 male Sprague-Dawley rats (125-150 g, Charles River Breeding Laboratories, Burlington, MD). Twenty-four rats were used for each labeled biotin compound. Twenty-four hours after injection, swelling in the right thigh readily appeared, and 24 rats each received 1.67 mg of avidin in saline via the tail vein. […] Rats were sacrificed at 5 and 60 min. post-injection, six rats per time point. Blood samples were obtained by cardiac puncture. Syringes were weighed before and after injection to determine the volume delivered. The activity per unit volume was obtained from standards. A total of eleven different tissues were excised, weighed, and counted. These tissues included blood; bone; lung; liver; adrenal; spleen; kidneys; heart; muscle (thigh); teste; and infected muscle (thigh). The excised tissues were blotted, weighed, and counted in a scintillation well counter. The raw counts were decay corrected. The results were expressed as percent injected dose per gram, and infection-to-normal muscle ratios (mean ± s.d.). The biodistribution results were evaluated by analysis of variance (one-way ANOVA). The effect of avidin […] on biodistribution was evaluated by student t-test.

E. coli infected rats = experiment: in vivo; format: in vivo, male Sprague-Dawley rats; details: for Infected to normal tissue ratio, Norm mus: infection/normal muscle
Description: as §1

[1] = Without Avidin, 60 Min., listed as 18F-biotin1
[2] = Without Avidin, 60 Min., listed as 18F-labeled biotin 1

Sequence of avidin (P02701 25-152): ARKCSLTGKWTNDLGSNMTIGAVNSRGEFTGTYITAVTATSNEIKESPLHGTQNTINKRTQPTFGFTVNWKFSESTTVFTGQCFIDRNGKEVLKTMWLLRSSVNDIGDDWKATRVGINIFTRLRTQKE

Bmax (avidin; scatchard transformation of displacement curve, cold d-biotin): 5.57 x 10 ^-16 M | tissue uptake at 5 min (in vivo; Tissue distribution, Adrenal): 1 ± 0.2 %ID/g | tissue uptake at 1 h (in vivo; Tissue distribution, Adrenal): 0.09 ± 0.02 %ID/g | tissue uptake at 5 min (in vivo; Tissue distribution, Blood): 1.07 ± 0.31 %ID/g | tissue uptake at 1 h (in vivo; Tissue distribution, Blood): 0.14 ± 0.02 %ID/g | tissue uptake at 5 min (in vivo; Tissue distribution, Bone): 1.1 ± 0.16 %ID/g | tissue uptake at 1 h (in vivo; Tissue distribution, Bone): 2.94 ± 0.37 %ID/g | tissue uptake at 5 min (in vivo; Tissue distribution, Heart): 1 ± 0.34 %ID/g | tissue uptake at 1 h (in vivo; Tissue distribution, Heart): 0.14 ± 0.02 %ID/g | tissue uptake at 5 min (in vivo; Tissue distribution, Inf mus): 1.22 ± 0.36 %ID/g | tissue uptake at 1 h (in vivo; Tissue distribution, Inf mus): 0.43 ± 0.1 %ID/g | tissue uptake at 5 min (in vivo; Tissue distribution, Kidney): 4.78 ± 0.8 %ID/g | tissue uptake at 1 h (in vivo; Tissue distribution, Kidney): 0.23 ± 0.05 %ID/g | tissue uptake at 5 min (in vivo; Tissue distribution, Liver): 1.39 ± 0.16 %ID/g | tissue uptake at 1 h (in vivo; Tissue distribution, Liver): 0.13 ± 0.03 %ID/g | tissue uptake at 5 min (in vivo; Tissue distribution, Lung): 1.21 ± 0.13 %ID/g | tissue uptake at 1 h (in vivo; Tissue distribution, Lung): 0.11 ± 0.02 %ID/g | tissue uptake at 5 min (in vivo; Tissue distribution, Norm mus): 0.83 ± 0.09 %ID/g | tissue uptake at 1 h (in vivo; Tissue distribution, Norm mus): 0.078 ± 0.02 %ID/g | tissue uptake at 5 min (in vivo; Tissue distribution, Spleen): 1.4 ± 0.3 %ID/g | tissue uptake at 1 h (in vivo; Tissue distribution, Spleen): 0.14 ± 0.03 %ID/g | tissue uptake at 5 min (in vivo; Tissue distribution, Teste): 0.57 ± 0.02 %ID/g | tissue uptake at 1 h (in vivo; Tissue distribution, Teste): 0.16 ± 0.03 %ID/g | tissue uptake at 1 h (in vivo; ^18F bone uptake (defluorination in vivo)): 2.94 ± 0.37 %ID/g | accumulation in kidney relative to blood (E. coli infected rats; rat, in vivo, 5 min): 4.5 fold | Tissue distribution, Adrenal (E. coli infected rats; rat, in vivo, iv, 5 min): 0.85±0.13 percent injected dose per gram | Tissue distribution, Blood (E. coli infected rats; rat, in vivo, iv, 5 min): 1.13±0.11 percent injected dose per gram | Tissue distribution, Bone (E. coli infected rats; rat, in vivo, iv, 5 min): 1.19±0.23 percent injected dose per gram | Tissue distribution, Heart (E. coli infected rats; rat, in vivo, iv, 5 min): 0.99±0.12 percent injected dose per gram | Tissue distribution, Inf mus (E. coli infected rats; rat, in vivo, iv, 5 min): 0.99±0.11 percent injected dose per gram | Tissue distribution, Kidney (E. coli infected rats; rat, in vivo, iv, 5 min): 4.01±0.77 percent injected dose per gram | Tissue distribution, Liver (E. coli infected rats; rat, in vivo, iv, 5 min): 1.29±0.17 percent injected dose per gram | Tissue distribution, Norm mus (E. coli infected rats; rat, in vivo, iv, 5 min): 0.82±0.12 percent injected dose per gram | Tissue distribution, Spleen (E. coli infected rats; rat, in vivo, iv, 5 min): 1.52±0.32 percent injected dose per gram | Tissue distribution, Teste (E. coli infected rats; rat, in vivo, iv, 5 min): 0.50±0.11 percent injected dose per gram | Tissue distribution, Blood (E. coli infected rats; rat, in vivo, iv, 1 h): 0.19±0.04 percent injected dose per gram | Tissue distribution, Bone (E. coli infected rats; rat, in vivo, iv, 1 h): 2.29±0.14 percent injected dose per gram | Tissue distribution, Inf mus (E. coli infected rats; rat, in vivo, iv, 1 h): 0.65±0.14 percent injected dose per gram | Tissue distribution, Kidney (E. coli infected rats; rat, in vivo, iv, 1 h): 0.32±0.04 percent injected dose per gram | Tissue distribution, Norm mus (E. coli infected rats; rat, in vivo, iv, 1 h): 0.10±0.02 percent injected dose per gram | Tissue distribution, Spleen (E. coli infected rats; rat, in vivo, iv, 1 h): 0.19±0.0 percent injected dose per gram | Tissue distribution, Teste (E. coli infected rats; rat, in vivo, iv, 1 h): 0.19±0.04 percent injected dose per gram
Structure (SMILES): O=C(CCCC[C@@H]1SC[C@@H]2NC(=O)N[C@@H]21)NCCC[18F] [Biotin 1]
binding to avidin (avidin; in the presence of varying concentrations of unlabeled d-biotin): bind to avidin and could be displaced by cold d-biotin | Infected to normal tissue ratio, Adrenal (E. coli infected rats; With Avidin, 5 Min.): 1.20±0.22 | Infected to normal tissue ratio, Blood (E. coli infected rats; With Avidin, 5 Min.): 0.90±0.14 | Infected to normal tissue ratio, Heart (E. coli infected rats; With Avidin, 5 Min.): 1.08±0.18 | Infected to normal tissue ratio, Kidney (E. coli infected rats; With Avidin, 5 Min.): 0.28±0.06 | Infected to normal tissue ratio, Liver (E. coli infected rats; With Avidin, 5 Min.): 0.83±0.16 | Infected to normal tissue ratio, Lung (E. coli infected rats; With Avidin, 5 Min.): 1.06±0.30 | Infected to normal tissue ratio, Spleen (E. coli infected rats; With Avidin, 5 Min.): 0.64±0.11 | Infected to normal tissue ratio, Teste (E. coli infected rats; With Avidin, 5 Min.): 2.00±0.37 | Infected to normal tissue ratio, bone (E. coli infected rats; With Avidin, 5 Min.): 0.90±0.18 | Infected to normal tissue ratio, Norm mus (E. coli infected rats; With Avidin, 5 Min.): 1.24±0.20 | Infected to normal tissue ratio, Adrenal (E. coli infected rats; With Avidin, 60 Min.): 5.74±1.14 | Infected to normal tissue ratio, Blood (E. coli infected rats; With Avidin, 60 Min.): 3.75±0.75 | Infected to normal tissue ratio, Heart (E. coli infected rats; With Avidin, 60 Min.): 7.59±1.34 | Infected to normal tissue ratio, Kidney (E. coli infected rats; With Avidin, 60 Min.): 2.04±0.35 | Infected to normal tissue ratio, Liver (E. coli infected rats; With Avidin, 60 Min.): 4.05±0.65 | Infected to normal tissue ratio, Lung (E. coli infected rats; With Avidin, 60 Min.): 4.83±0.91 | Infected to normal tissue ratio, Spleen (E. coli infected rats; With Avidin, 60 Min.): 3.34±0.72 | Infected to normal tissue ratio, Teste (E. coli infected rats; With Avidin, 60 Min.): 3.35±0.56 | Infected to normal tissue ratio, bone (E. coli infected rats; With Avidin, 60 Min.): 0.28±0.07 | Infected to normal tissue ratio, Norm mus (E. coli infected rats; With Avidin, 60 Min.): 6.39± 0.96 | Infected to normal tissue ratio, Norm mus (E. coli infected rats; With Avidin, 60 Min., listed as 18F-labeled biotin 1): 6.39±0.96 | Infected to normal tissue ratio, Adrenal (E. coli infected rats; Without Avidin, 5 Min.): 1.06±0.24 | Infected to normal tissue ratio, Blood (E. coli infected rats; Without Avidin, 5 Min.): 1.30±0.86 | Infected to normal tissue ratio, Heart (E. coli infected rats; Without Avidin, 5 Min.): 1.21±0.26 | Infected to normal tissue ratio, Kidney (E. coli infected rats; Without Avidin, 5 Min.): 0.26±0.05 | Infected to normal tissue ratio, Liver (E. coli infected rats; Without Avidin, 5 Min.): 0.89±0.25 | Infected to normal tissue ratio, Lung (E. coli infected rats; Without Avidin, 5 Min.): 1.00±0.23 | Infected to normal tissue ratio, Spleen (E. coli infected rats; Without Avidin, 5 Min.): 0.94±0.49 | Infected to normal tissue ratio, Teste (E. coli infected rats; Without Avidin, 5 Min.): 2.14±0.60 | Infected to normal tissue ratio, bone (E. coli infected rats; Without Avidin, 5 Min.): 1.06±0.33 | Infected to normal tissue ratio, Norm mus (E. coli infected rats; Without Avidin, 5 Min.): 1.54±0.69 | Infected to normal tissue ratio, Adrenal (E. coli infected rats; Without Avidin, 60 Min.): 5.20±1.20 | Infected to normal tissue ratio, Heart (E. coli infected rats; Without Avidin, 60 Min.): 6.21±0.57 | Infected to normal tissue ratio, Lung (E. coli infected rats; Without Avidin, 60 Min.): 4.21±0.69 | Infected to normal tissue ratio, Spleen (E. coli infected rats; Without Avidin, 60 Min.): 2.98±0.30 | Infected to normal tissue ratio, Teste (E. coli infected rats; Without Avidin, 60 Min.): 2.87±0.50 | Infected to normal tissue ratio, bone (E. coli infected rats; Without Avidin, 60 Min.): 0.16±0.04 | Infected to normal tissue ratio, Norm mus (E. coli infected rats; Without Avidin, 60 Min.): 6.08 ± 1.12 | Infected to normal tissue ratio, Norm mus (E. coli infected rats; Without Avidin, 60 Min., listed as 18F-Biotin 1): 6.1±1.1 | Infected to normal tissue ratio, Norm mus (E. coli infected rats; [1]): 6.1 | Infected to normal tissue ratio, Norm mus (E. coli infected rats; [2]): 6.08±1.12 | Infected to normal tissue ratio, Norm mus (E. coli infected rats; Without Avidin, 60 Min., listed as biotin 1): 6.08± 1.12 | Infected to normal tissue ratio, Blood (E. coli infected rats; [1]): 3.1 | Infected to normal tissue ratio, Kidney (E. coli infected rats; [1]): 2.0 | Infected to normal tissue ratio, Liver (E. coli infected rats; [1]): 3.5 | Infected to normal tissue ratio, Blood (E. coli infected rats; [2]): 3.09±0.54 | Infected to normal tissue ratio, Kidney (E. coli infected rats; [2]): 1.96±0.24 | Infected to normal tissue ratio, Liver (E. coli infected rats; [2]): 3.48±0.67
